# Patent publication US20250340591A1, “COMPOSITION FOR PREVENTING OR TREATING INFLAMMATORY BOWEL DISEASE CONTAINING NOVEL COMPOUND” (ANYGEN CO., LTD., priority 2021, published 2025)
# Square brackets hold non-standard residues; d marks the D form. Peptide text beside a SMILES is read from it. * marks the point of attachment. His(Trt) = N[C@@H](Cc1cn(C(c2ccccc2)(c2ccccc2)c2ccccc2)cn1)C(=O)O; His(τ-CHPh2) = N[C@@H](Cc1cn(C(c2ccccc2)c2ccccc2)cn1)C(=O)O; Tyr(3-NH2) = Nc1cc(C[C@H](N)C(=O)O)ccc1O; dPhe(4-Br) = N[C@H](Cc1ccc(Br)cc1)C(=O)O; dPhe(4-Me) = Cc1ccc(C[C@@H](N)C(=O)O)cc1; Octanoyl = CCCCCCCC(=O)*
# Molecular target: T1, GPR39 (Homo sapiens, UniProt O43194)
# T1 sequence (O43194 1-453): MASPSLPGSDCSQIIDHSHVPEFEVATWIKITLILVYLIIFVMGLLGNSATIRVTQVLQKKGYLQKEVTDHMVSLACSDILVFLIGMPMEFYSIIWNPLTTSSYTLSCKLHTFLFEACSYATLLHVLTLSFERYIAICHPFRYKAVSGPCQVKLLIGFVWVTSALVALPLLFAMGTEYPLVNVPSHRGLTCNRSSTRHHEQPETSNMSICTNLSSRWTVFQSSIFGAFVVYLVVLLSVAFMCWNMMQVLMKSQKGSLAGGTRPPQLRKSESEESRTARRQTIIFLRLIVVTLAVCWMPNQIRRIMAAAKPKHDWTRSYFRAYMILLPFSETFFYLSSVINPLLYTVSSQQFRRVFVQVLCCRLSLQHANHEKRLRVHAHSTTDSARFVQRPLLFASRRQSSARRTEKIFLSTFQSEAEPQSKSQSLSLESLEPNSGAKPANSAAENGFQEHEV
# Assay: luciferase assay system (SRE luciferase reporter gene, CV-1 cells expressing GPR39)
# Assay type: cell-based
# Parameters: expressed in transfected cells; host or cells: CV-1 fibroblast cell line (Korea Cell Line Bank), adenoviral transduction at 50 MOI
row,SMILES,ECmax (−fold induction over basal) [fold induction over basal]
1,"CCCCCCCC(=O)NCCCC[C@H](NC(=O)[C@H](Cc1cn(C(c2ccccc2)(c2ccccc2)c2ccccc2)cn1)NC(=O)[C@H](CO)NC(=O)CN)C(=O)N[C@@H](Cc1ccccc1)C(=O)N[C@@H](Cc1ccc(O)cc1)C(=O)O [HKFY-37, N2-(Na-glycyl-L-seryl-Nt-trityl-L-histidyl)-N6-octanoyl-L-lysyl-L-phenylalanyl-L-tyrosine] (H-GS[His(Trt)]K(Octanoyl)FY-OH)",16 ± 1.7
2,"CCCCCCCC(=O)NCCCC[C@H](NC(=O)[C@@H](N)Cc1cn(C(c2ccccc2)c2ccccc2)cn1)C(=O)N[C@H](Cc1ccc(C)cc1)C(=O)N[C@@H](Cc1ccc(O)c(N)c1)C(=O)O [HKFY-70, (S)-2-((R)-2-((S)-2-((S)-2-amino-3-(1-benzhydryl-1H-imidazol-4-yl)propanamido)-6-octanamidohexanamido)-3-(p-tolyl)propanamido)-3-(3-amino-4-hydroxyphenyl)propanoic acid] (H-[His(τ-CHPh2)]K(Octanoyl)[dPhe(4-Me)][Tyr(3-NH2)]-OH)",10.1 ± 1.6
3,"CCCCCCCC(=O)NCCCC[C@H](NC(=O)[C@@H](N)Cc1cn(C(c2ccccc2)c2ccccc2)cn1)C(=O)N[C@@H](Cc1ccccc1)C(=O)N[C@@H](Cc1ccc(O)cc1)C(=O)O [HKFY-33, N2-(Nt-benzhydryl-L-histidyl)-N6-octanoyl-L-lysyl-L-phenylalanyl-L-tyrosine] (H-[His(τ-CHPh2)]K(Octanoyl)FY-OH)",20 ± 0.57
4,"CCCCCCCC(=O)NCCCC[C@H](NC(=O)[C@@H](N)Cc1cn(C(c2ccccc2)(c2ccccc2)c2ccccc2)cn1)C(=O)N[C@@H](Cc1ccccc1)C(=O)N[C@@H](Cc1ccc(O)cc1)C(=O)N[C@@H](Cc1c[nH]cn1)C(=O)N[C@@H](CCC(N)=O)C(=O)N[C@@H](CCC(N)=O)C(=O)N[C@@H](C)C(=O)N[C@@H](CCCNC(=N)N)C(=O)N[C@@H](Cc1ccccc1)C(N)=O [HKFY-42, (S)-2-((2S,5S,8S,11S)-2-((1H-imidazol-4-yl)methyl)-11-((S)-2-amino-3-(1-trityl-1H-imidazol-4-yl)propanamido)-8-benzyl-5-(4-hydroxybenzyl)-4,7,10,17-tetraoxo-3,6,9,16-tetraazatetracosanamido)-N1-((S)-5-amino-1-(((S)-1-(((S)-1-(((S)-1-amino-1-oxo-3-phenylpropan-2-yl)amino)-5-guanidino-1-oxopentan-2-yl)amino)-1-oxopropan-2-yl)amino)-1,5-dioxopentan-2-yl)pentanediamide] (H-[His(Trt)]K(Octanoyl)FYHQQARF-NH2)",11.8 ± 0.02

# Other lines, results leading:
row,ECmax (−fold induction over basal) [fold induction over basal],SMILES
1,16.8 ± 2.5,"CCCCCCCC(=O)NCCCC[C@H](N)C(=O)N[C@@H](Cc1cn(C(c2ccccc2)(c2ccccc2)c2ccccc2)cn1)C(=O)N[C@@H](Cc1ccccc1)C(=O)N[C@@H](Cc1ccc(O)cc1)C(=O)O [HKFY-55, Na-(N6-octanoyl-L-lysyl)-Nt-trityl-L-histidyl-L-phenylalanyl-L-tyrosine] (H-K(Octanoyl)[His(Trt)]FY-OH)"
2,20 ± 0.28,"CCCCCCCC(=O)NCCCC[C@H](NC(=O)[C@@H](N)Cc1cn(C(c2ccccc2)(c2ccccc2)c2ccccc2)cn1)C(=O)N[C@@H](Cc1ccccc1)C(=O)N[C@@H](Cc1c[nH]c2ccccc12)C(=O)O [HKFY-46, N6-octanoyl-N2-(Nt-trityl-L-histidyl)-L-lysyl-L-phenylalanyl-L-tryptophan] (H-[His(Trt)]K(Octanoyl)FW-OH)"
3,26.8 ± 1.87,"CCCCCCCC(=O)NCCCC[C@H](NC(=O)[C@@H](N)Cc1cn(C(c2ccccc2)(c2ccccc2)c2ccccc2)cn1)C(=O)N[C@H](Cc1ccc(Br)cc1)C(=O)N[C@@H](Cc1ccc(O)cc1)C(=O)O [HKFY-29, ((R)-2-((S)-2-((S)-2-amino-3-(1-trityl-1H-imidazol-4-yl)propanamido)-6-octanamidohexanamido)-3-(4-bromophenyl)propanoyl)-L-tyrosine] (H-[His(Trt)]K(Octanoyl)[dPhe(4-Br)]Y-OH)"
